The text below walks through data of patent EP0981626B1, “FUNGICIDAL TEST METHOD” (Bayer CropScience Limited, priority 1997, dated 1998).

Where only a bound is given, the exact number is not on record here.

The subject of one assay is Septoria nodorum (BS171). Briefly: in vitro inhibition of fungal growth in Cz medium. It counts as cell-based. To be noted: Parastagonospora nodorum, 144 h; tested at 10, 25, 50, 75, 100, 150, 200 and 250 ppm in Cz medium; growth assessed after six days. The text has this: Tabulated below are a selection of compounds which gave a significant inhibition of recombinant IPMDH. These compounds were also able to inhibit Septoria nodorum in vitro. […] Approximately 10^5 conidia of Septoria nodorum BS171 were inoculated to Cz medium with the compounds and the effect on fungal growth assessed after six days.

The test system of another assay is Phytophthora infestans. The class given is in vivo. The following applies: 500 ppm; late tomato or potato blight; score = % control class.
A further assay concerns Erysiphe cichoracearum. Description: in vivo fungicidal activity on test plants, visually estimated infection. To be noted: 500 ppm.
The test system of the next assay is Plasmopara viticola. Described as above.
Assay [1] deals with recombinant IPMDH (3-isopropylmalate dehydrogenase). Description: biochemical screen for inhibitors of recombinant IPMDH (spectrometric NADH assay at 340 nm). Details: species or system Septoria nodorum. To be noted: buffer as control; for % inhibition at 3.3 ppm: first test; for % inhibition at 3.3 ppm, Repeat: repeat test. The method, then: The recombinant IPMDH was used in a biochemical screen for inhibitors of 3-isopropylmalate dehydrogenase as follows. The assay was originally described by Parsons in 1969 (Purification and properties of β-IPMD, Parsons et al., Journal of Biological Chemistry, 244, (4), 996-1003. It is an spectrometric assay, based on the reduction of coenzyme […] measured at 340 nm. Prior to any assay the rate of production of a given unit of β-NADH was determined and only the rate of the initial linear fraction of the progress curve was taken for the evaluated assay. The reagents for the assay are: the enzyme 3-Isopropyl malate dehydrogenase, KH2PO4, MnCl2, β-NAD (nicotinamide adenine dinucleotide) and the substrate isopropylmalate. […] The mixture is incubated for two minutes at 25°C and the reaction is started by adding 140µl buffer containing the substrate IPM, KH2PO4, MnCl2, β-NAD at pH8. The rate of the increase β-NADH is monitored each minute and five data points are collected. The inhibition of the potential inhibitors are expressed in %-inhibition using buffer as a control. […] Tabulated below are a selection of compounds which gave a significant inhibition of recombinant IPMDH. These compounds were also able to inhibit Septoria nodorum in vitro. […] Approximately 10^5 conidia of Septoria nodorum BS171 were inoculated to Cz medium with the compounds and the effect on fungal growth assessed after six days.

Where [2] appears, read: cucumber powdery mildew, score = % control class.
The mark [3] stands for this setting: 125 ppm, vine downy mildew, score = % control class.

The term MIC denotes the least concentration at which growth counts as inhibited. By % inhibition is commonly meant the drop in the measured response relative to a control, in per cent. As for `O=C(Oc1ccccc1)n1c(C(F)(F)F)nc2cc(Br)c(Cl)cc21` [Compound 1, phenyl 5-bromo-6-chloro-2-trifluoromethyl-benzimidazole-1-carboxylate], the MIC with Septoria nodorum (BS171) lay in the range of 100 to 150 µg/mL. The figures for the Score with Phytophthora infestans, in the assay on Erysiphe cichoracearum (setting [2]) and in the assay on Plasmopara viticola (setting [3]) were 7 (85-94), 6 (75-84) and 5 (@125 ppm) (65-74), respectively. Moreover, the “% inhibition at 3.3 ppm” value in assay [1] was 33%. In assay [1], the “% inhibition at 3.3 ppm, Repeat” value is 56%.

With `O=C(Oc1ccccc1)n1c(C(F)(F)F)nc2c(Br)c(Br)c(Br)cc21` [Compound 2, phenyl 4,5,6-tribromo-2-trifluoromethyl-benzimidazole-1-carboxylate], the MIC in the assay with Septoria nodorum (BS171) was greater than 250 µg/mL. The figures for the Score in the assay on Phytophthora infestans, in the assay on Erysiphe cichoracearum (setting [2]) and in the assay with Plasmopara viticola (setting [3]) were 6 (75-84), 7 (85-94) and 6 (@125 ppm) (75-84), respectively. In addition, in assay [1], the “% inhibition at 3.3 ppm” value was 33%. In addition, in assay [1], the “% inhibition at 3.3 ppm, Repeat” value was determined as 42%.

For the compound `CC(C)CCC(C)OC(=O)n1c(C(F)(F)F)nc2c(Br)c(Br)c(Br)cc21` (centres unmarked) [Compound 3, 1,4-dimethylpentyl 4,5,6-tribromo-2-trifluoromethyl-benzimidazole-1-carboxylate], in the assay on Septoria nodorum (BS171), the MIC is 100 to 150 µg/mL. The Score in the assay with Erysiphe cichoracearum (setting [2]) is 8 (95-100). In addition, the Score with Plasmopara viticola (500 ppm, vine downy mildew, score = % control class) is listed as 8 (95-100). For the same compound, in assay [1], the “% inhibition at 3.3 ppm” value is 57% and the “% inhibition at 3.3 ppm, Repeat” value came to 20%.

In the case of `N#Cc1sc2c(=O)c3ccccc3c(=O)c=2sc1C#N` [Compound 4, 5,10-dioxo-5,10-dihydronaphtho-[2,3-b][1,4]dithiine-2,3-dicarbonitrile], the MIC with Septoria nodorum (BS171) fell in the range of 0 to 10 µg/mL. The Score with Phytophthora infestans was 7 (85-94); in the assay with Erysiphe cichoracearum, 0 (key: 0-20; 1: 20-34; 2: 35-44; 3: 45-54; 55-64; 65-74; 6: 75-84; 7: 85-94; 8: 95-100); in the assay with Plasmopara viticola (125 ppm), 7 (@125 ppm) (key: 0-20; 1: 20-34; 2: 35-44; 3: 45-54; 55-64; 65-74; 6: 75-84; 7: 85-94; 8: 95-100). The “% inhibition at 3.3 ppm” value in assay [1] is 41%. Moreover, the “% inhibition at 3.3 ppm, Repeat” value in assay [1] came out at 66%.
